The subject of one assay is fibronectin. Briefly: Affinity chromatography on *[…]*-Sepharose. Format: binding, Human.
For assay [1], the system named is fibronectin type III10 (RGD-containing) fragments. Kind of assay: Panning of phage display peptide libraries on fibronectin fragments. The following applies: Table I. In kind it is binding.
Assay [2] has as its system MG-63 osteosarcoma cells, vitronectin. Briefly: Cell attachment assay on vitronectin. In kind it is cell-based. The settings on record: MG-63 cells, 30 min, crystal violet OD600, mean of triplicate wells.
The subject of assay [3] is MG-63 osteosarcoma cells, fibronectin. Kind of assay: Cell attachment assay on fibronectin. Format: cell-based. The following applies: MG-63 cells, 30 min, crystal violet OD600, mean of triplicate wells.
The subject of assay [4] is MG-63 osteosarcoma cells, type IV collagen. Kind of assay: Cell attachment assay on type IV collagen. Format: cell-based. The following applies: MG-63 cells, 30 min, crystal violet OD600, mean of triplicate wells.
Assay [5] relates to fibronectin fragment III8,9 (RGD-). Kind of assay: Phage attachment assay on fibronectin fragment III8,9. Format: binding. The following applies: microtiter wells, OD600, mean of triplicates.
The subject of assay [6] is fragment encompassing the alternatively spliced cell attachment domain of fibronectin. Kind of assay: Phage attachment assay on alternatively spliced fibronectin fragment. Format: binding. The following applies: not shown.
The test system of assay [7] is control proteins (BSA and GST). Kind of assay: Phage attachment assay on control proteins. In kind it is binding. The settings on record: microtiter wells, OD600, mean of triplicates.
Assay [8] has as its system fibronectin and fibronectin fragments containing the RGD sequence (III10). Kind of assay: Phage attachment assay on fibronectin and RGD-containing fibronectin fragments. In kind it is binding, Human.
Assay [9] can be described thus: WDDGWL-phage attachment to immobilized peptide. Format: binding. The settings on record: peptide coated at 20 μg/ml; mean of triplicate wells.
Another assay can be described thus: RGD-phage. In kind it is binding. The following applies: peptide coated at 20 μg/ml; mean of triplicate wells.
The test system of assay [10] is III8-11 fibronectin fragment / WDDGWL-phage. Kind of assay: Inhibition of WDDGWL-phage binding to fibronectin fragment by peptides. The settings on record: soluble competitor, microtiter assay, Fig. 2 b.
Assay [11] can be described thus: Inhibition of RGD-phage attachment to immobilized peptides. In kind it is binding. The settings on record: soluble peptide 1 mM; mean of triplicate wells, Fig. 3 c.
Assay [12] in a line: Inhibition of WDDGWL-phage attachment to immobilized peptides. In kind it is binding. The following applies: soluble peptide 1 mM; mean of triplicate wells, Fig. 3 b.
Assay [13] is described as follows: Inhibition of RGD-phage binding to immobilized beta 3.
Assay [14] concerns beta 3 subunit of purified alpha IIb beta 3. Briefly: Immunoblot of purified alpha IIb beta 3. In kind it is binding. (In general: A western blot detects proteins with antibodies after separation by electrophoresis.)
In assay [15] the test system is beta 1 and beta 3 integrin subunits in MG-63 total cell extracts. Briefly: Immunoblot of MG-63 cell extracts. In kind it is binding. The following applies: peptide 100 μM, Fig. 7 b lanes C and D.
Assay [16] can be described thus: Fibronectin on control peptide column. In kind it is binding. The following applies: not shown.
In another assay the test system is RGD-mimic OPG2 antibody. The following applies: aspartic acid residues of DDLW mutated to alanines; ref Bajt et al. (3); cited from earlier work.
In another assay the test system is fibrinogen. The following applies: aspartic acid residues of DDLW mutated to alanines; cited from earlier work.

Ends that are not written are not given here.

On to GRGESP, for which the “elution of fibronectin from *CWDDGWLC*-Sepharose” value in the assay with fibronectin (eluting peptide 1 mM, SDS-PAGE) is “not with the GRGESP peptide”.
Take DYWLGF: the “number of phage displaying the same amino acid motif” value (from here on “number”) in [1] (direct infection of wells) stood at 1.
The same measure, in the same setting: then SWDDGWL, with 6.
Take “*CVRLNSLAC* (disulfide) [reference compound]”: the “inhibition of cell attachment” value in [2], in [3] and in [4] was “no effect on any of the substrates” throughout.
On to QRIVLGFT, for which, in assay [1] (direct infection of wells), the “number” value was 1.
In the case of LVWLLVQFY, the “number” value in assay [1] (EDTA elution) is given as 2.
Turning to “WDDGWL (disulfide (positions not given here))”, the “number” value in assay [1] (EDTA elution) is 21; in assay [1] (RGD elution), 131; in assay [1] (direct infection of wells), 45. In addition, the phage binding result in assay [5], in assay [6] and in assay [7] was “minimal” in each case. Further, the “divalent cation requirement of phage binding” value in assay [8] is listed as “did not require divalent cations”.
For the molecule WDDGLM, the “number” value in [1] (RGD elution) is reported as 7.
For the molecule “A*CRGDGWMC*G (disulfide) [reference compound]”, in assay [9], the “binding of WDDGWL-phage to immobilized peptide” value is “WDDGWL-phage can bind to the RGD-containing peptide”. In addition, the “binding of RGD-phage to immobilized peptide” value in the assay “RGD-phage” is on record as “slight, but consistent, binding”. The “inhibition of WDDGWL-phage binding” value in assay [10] is “in a dose-dependent manner”. For the same molecule, the “inhibition of RGD-phage binding to immobilized peptide” value in assay [11] is recorded as “inhibited by both peptides”. In [12], the “inhibition of WDDGWL-phage binding to immobilized peptide” value is “blocked the WDDGWL-phage binding”.
Consider WDDGWM, for which the “number” value in [1] (RGD elution) turned out to be 4.
`O=C(O)CN(CCN(CC(=O)O)CC(=O)O)CC(=O)O` [EDTA, reference compound]: in [13] (peptides coated in the presence of cations, EDTA 10 mM), the “effect of EDTA on RGD-phage binding” value is “did not block phage binding”.
As for *CWDDGWLC* (disulfide), the “binding of RGD-phage to immobilized peptide” value in the assay “RGD-phage” is reported as “can bind to the *CWDDGWLC*-containing”. Also, the “inhibition of RGD-phage binding” value in [13] (soluble peptide, Fig. 6 b) is on record as “blocked”. The “inhibition of WDDGWL-phage binding” value in assay [10] is “in a dose-dependent manner”. For the same molecule, the “inhibition of RGD-phage binding to immobilized peptide” value in assay [11] is given as “inhibited by both peptides”. Besides, the “binding of fibronectin to peptide-Sepharose” value in the assay with fibronectin (fibronectin 2 mg, TBS, SDS-PAGE) is “fibronectin bound to *CWDDGWLC*-Sepharose”. Moreover, the “inhibition of cell attachment” value in assay [2] is “inhibited cell adhesion”; in assay [3] it was “inhibited cell adhesion”; in assay [4], “not on collagen”. Moreover, in assay [14] (Fig. 7 a or b, also MG-63 extracts), the “effect of peptide on reactivity of positive control antibodies” value is “no ef- fect on the reactivity of the positive control antibodies”. For the same molecule, the “reactivity of the anti-*CWDDGWLC* serum after preincubation with peptide” value in [14] (peptide 100 μM, Fig. 7 a lanes C and D) is reported as “abrogated”. Moreover, in assay [12], the “inhibition of WDDGWL-phage binding to immobilized peptide” value is given as “blocked the WDDGWL-phage binding”. Moreover, in assay [15], the “reactivity of the anti-WDDGWL serum after preincubation with peptide” value is “abrogated”.
Regarding GNRLR, the “number” value in assay [1] (direct infection of wells) was 1.
Consider WDDLWWL, for which, in assay [1] (RGD elution), the “number” value worked out at 10.
As for Fibronectin, the “retention on control unrelated peptide column” value in assay [16] is recorded as “not retained”.
As to FVLWLV, in [1] (direct infection of wells), the “number” value is on record as 1.
The same measure, in the same setting: then DGWLGF, with 2.
For “mutant alIb[33 integrin: integrin with aspartic acid residues of DDLW mutated to alanines (ref 3)”, the “binding to OPG2 antibody” value in the assay on RGD-mimic OPG2 antibody was “lost”. For the same molecule, the binding to fibrinogen entry in the assay with fibrinogen is listed as “did not appreciably affect the binding”.
In the case of BSA: control protein, the “retention on *CWDDGWLC*-Sepharose column” value in the assay with fibronectin (proteins other than fibronectin) is on record as “not retained”.
With PDDLWWL, the “number” value in [1] (direct infection of wells) is 3.
In the case of TLRFQRS, the “number” value in assay [1] (EDTA elution) was determined as 1.

These data come from PMC2120548 (The Journal of Cell Biology, 1995).
